The values below come from ChEMBL document CHEMBL5518232, “Discovery of New Tricyclic Oxime Sampangine Derivatives as Potent Antifungal Agents for the Treatment of Cryptococcosis and Candidiasis” (J Med Chem, 2024).

The subject of series [1] is Candida albicans. Description: Antifungal activity against Candida albicans SC5314 assessed as reduction in fungal growth incubated for 48 hrs by liquid based microdilution method. It is filed as functional. Background: In broth dilution the organism is exposed to a series of concentrations in liquid medium.
Series [2] relates to Candida albicans. Description: Antifungal activity against Candida albicans 0304103 assessed as reduction in fungal growth incubated for 48 hrs by liquid based microdilution method. Format: functional.
The test system of another series is Candida tropicalis. Description: Antifungal activity against Candida tropicalis 10186 assessed as reduction in fungal growth incubated for 48 hrs by liquid based microdilution method. It is filed as functional.
The subject of a further series is Nakaseomyces glabratus. Kind of series: Antifungal activity against Candida glabrata 9073 assessed as reduction in fungal growth incubated for 48 hrs by liquid based microdilution method. Format: functional.
Series [3] relates to Cryptococcus neoformans. Kind of series: Antifungal activity against Cryptococcus neoformans H99 assessed as reduction in fungal growth incubated for 72 hrs by liquid based microdilution method. It is filed as functional.
The subject of series [4] is Cryptococcus neoformans. Description: Antifungal activity against Cryptococcus neoformans ATCC 34877 assessed as reduction in fungal growth incubated for 72 hrs by liquid based microdilution method. It is filed as functional.
Series [5] is described as follows: Antifungal activity against Cryptococcus gattii VGI ATCC 14116 assessed as reduction in fungal growth incubated for 72 hrs by liquid based microdilution method. It is filed as functional.
In series [6] the test system is Candida albicans. Description: Synergistic antifungal activity against Candida albicans 0304103 assessed as inhibition of fungal growth incubated for 48 hrs in presence of fluconazole by checkerboard microdilution assay. It is filed as functional.
Series [7] relates to Candida albicans. Kind of series: Synergistic antifungal activity against Candida albicans 0304103 assessed as fractional inhibitory concentration index by measuring ratio of MIC80 for compound and synergetic / MIC80 for compound alone + MIC80 for fluconazole synergetic / MIC80 for fluconazole alone. Format: functional.
Series [8] concerns Cryptococcus neoformans. Kind of series: Antifungal activity against Cryptococcus neoformans assessed as reduction in fungal growth incubated for 24 hrs by broth microdilution method. It is filed as functional.
Series [9] concerns Candida albicans. Description: Antifungal activity against Candida albicans assessed as reduction in fungal growth incubated for 24 hrs by broth microdilution method. Format: functional.
Series [10] relates to Candida albicans. Description: Antagonistic antifungal activity against Candida albicans 0304103 assessed as fractional inhibitory concentration index by measuring ratio of MIC80 for compound and synergetic / MIC80 for compound alone + MIC80 for fluconazole synergetic / MIC80 for fluconazole alone. Format: functional.
Series [11] is described as follows: Effective permeability of the compound across blood brain barrier incubated for 12 hrs by PAMPA assay. It is filed as ADME. The conditions noted are these: read-out: Peff. (In general: The PAMPA barrier holds no transporters, so it reflects passive diffusion.)

For orientation: MIC80 means the lowest concentration that inhibits either 80% of growth or 80% of the strains tested, depending on the study.

Structures are written as SMILES. Values after ≈ are worked out from the molar mass of the structure shown.

Regarding `CCCc1noc2c1C(=O)c1sccc1/C2=N/OC`, the MIC80 in the series on Candida albicans [1] is > 64 µg/mL; with Candida albicans [2], > 64 µg/mL; in the series on Candida tropicalis it was > 64 µg/mL; in the series with Nakaseomyces glabratus it was > 64 µg/mL; in the series with Cryptococcus neoformans [3] it was 4 µg/mL (≈ 14.5 µM); in the series with Cryptococcus neoformans [4] it was 2 µg/mL (≈ 7.24 µM). For the same compound, the values for the MIC80 (in series [5]; in the series with Candida albicans [6]) were 16 µg/mL (≈ 57.9 µM) and 8 µg/mL, respectively. The “fractional inhibitory concentration index (FICI)” value with Candida albicans [7] is 0.25.
As to `Cc1ccnc2c1C(=O)c1sc([N+](=O)[O-])cc1C2=O`, the MIC80 in the series on Cryptococcus neoformans [8] is 0.25 µg/mL (≈ 0.912 µM); in the series on Candida albicans [9], 0.5 µg/mL (≈ 1.82 µM).
For the compound `CO/N=C1/c2ccsc2/C(=N\OC)c2ccsc21`, the MIC80 with Candida albicans [1] was > 64 µg/mL; in the series with Candida albicans [2], > 64 µg/mL; in the series on Candida tropicalis it was > 64 µg/mL; with Nakaseomyces glabratus, > 64 µg/mL; in the series on Cryptococcus neoformans [3], 32 µg/mL (≈ 115 µM); in the series on Candida albicans [6] it was > 64 µg/mL. For the same compound, the “fractional inhibitory concentration index (FICI)” value in the series with Candida albicans [10] is recorded as >2.
Turning to `Cc1noc2c1C(=O)c1sccc1/C2=N/OC(C)C`, the MIC80 in the series with Candida albicans [1] is > 64 µg/mL; in the series on Candida albicans [2] it was > 64 µg/mL; in the series on Candida tropicalis, > 64 µg/mL; with Nakaseomyces glabratus it was > 64 µg/mL; with Cryptococcus neoformans [3], > 64 µg/mL; with Candida albicans [6], 2 µg/mL. In addition, the “fractional inhibitory concentration index (FICI)” value in the series on Candida albicans [7] worked out at 0.063.
Consider `Cc1noc2c1C(=O)c1sccc1C2=O`, for which the MIC80 in the series with Candida albicans [1] is 0.13 µg/mL (≈ 0.593 µM); with Candida albicans [2], 0.5 µg/mL (≈ 2.28 µM); in the series with Candida tropicalis, 2 µg/mL (≈ 9.12 µM); in the series on Nakaseomyces glabratus, 1 µg/mL (≈ 4.56 µM); with Cryptococcus neoformans [3], 0.031 µg/mL (≈ 0.141 µM). The Papp at 12 h in [11] amounted to 7.69 ×10⁻⁶ cm/s.
`CO/N=C1/c2ccsc2C(=O)c2ccsc21`: the MIC80 in the series with Candida albicans [1] was > 64 µg/mL; with Candida albicans [2], > 64 µg/mL; in the series on Candida tropicalis it was > 64 µg/mL; in the series on Nakaseomyces glabratus it was > 64 µg/mL; in the series on Cryptococcus neoformans [3], 64 µg/mL (≈ 257 µM); with Candida albicans [6], 2 µg/mL. In addition, the “fractional inhibitory concentration index (FICI)” value with Candida albicans [7] was 0.047.
As for `CCc1noc2c1C(=O)c1sccc1/C2=N/OC`, the MIC80 with Candida albicans [1] is > 64 µg/mL; with Candida albicans [2], > 64 µg/mL; in the series with Candida tropicalis, > 64 µg/mL; in the series on Nakaseomyces glabratus, > 64 µg/mL; with Cryptococcus neoformans [3] it was 0.13 µg/mL (≈ 0.496 µM); in the series with Cryptococcus neoformans [4], 0.13 µg/mL (≈ 0.496 µM). Further, the MIC80 in series [5] amounted to 4 µg/mL (≈ 15.3 µM); in the series with Candida albicans [6], 2 µg/mL. In addition, the “fractional inhibitory concentration index (FICI)” value in the series with Candida albicans [7] came out at 0.047.
`CO/N=C1/c2ccccc2C(=O)c2c(C)noc21`: the MIC80 in the series with Candida albicans [1] was > 64 µg/mL; with Candida albicans [2], > 64 µg/mL; in the series with Candida tropicalis, > 64 µg/mL; in the series on Nakaseomyces glabratus it was > 64 µg/mL; in the series with Cryptococcus neoformans [3] it was 32 µg/mL (≈ 132 µM); in the series on Candida albicans [6], 2 µg/mL. Besides, the “fractional inhibitory concentration index (FICI)” value in the series on Candida albicans [7] came to 0.047.
In the case of `CCO/N=C1/c2ccccc2C(=O)c2c(C)noc21`, the MIC80 is > 64 µg/mL in the series with Candida albicans [1]; > 64 µg/mL in the series with Candida albicans [2]; > 64 µg/mL in the series with Candida tropicalis; > 64 µg/mL in the series with Nakaseomyces glabratus; > 64 µg/mL in the series on Cryptococcus neoformans [3]; 2 µg/mL in the series on Candida albicans [6]. Besides, in the series on Candida albicans [7], the “fractional inhibitory concentration index (FICI)” value is 0.039.
Regarding `CCO/N=C1/c2ccsc2C(=O)c2c(C)noc21`, the MIC80 is > 64 µg/mL in the series on Candida albicans [1]; > 64 µg/mL in the series with Candida albicans [2]; > 64 µg/mL in the series on Candida tropicalis; > 64 µg/mL with Nakaseomyces glabratus; 0.13 µg/mL (≈ 0.496 µM) with Cryptococcus neoformans [3]; 2 µg/mL (≈ 7.63 µM) in the series with Cryptococcus neoformans [4]. The values for the MIC80 (in [5]; in the series on Candida albicans [6]) were 4 µg/mL (≈ 15.3 µM) and 2 µg/mL, respectively. Besides, the “fractional inhibitory concentration index (FICI)” value in the series on Candida albicans [7] was 0.047.
For `Cc1noc2c1C(=O)c1ccccc1/C2=N/O`, the MIC80 was > 64 µg/mL in the series on Candida albicans [1]; > 64 µg/mL with Candida albicans [2]; > 64 µg/mL in the series with Candida tropicalis; > 64 µg/mL in the series on Nakaseomyces glabratus; 8 µg/mL (≈ 35.1 µM) in the series with Cryptococcus neoformans [3]; 8 µg/mL (≈ 35.1 µM) in the series on Cryptococcus neoformans [4]. Moreover, the values for the MIC80 (in [5]; in the series on Candida albicans [6]) were 16 µg/mL (≈ 70.1 µM) and 2 µg/mL, respectively. For the same compound, the “fractional inhibitory concentration index (FICI)” value in the series with Candida albicans [7] was found to be 0.063.
Take `O=C1c2ccccc2-c2nccc3ccnc1c23` [SAMPANGINE]: the figures for the MIC80 in the series with Cryptococcus neoformans [8] and in the series with Candida albicans [9] were 2 µg/mL (≈ 8.61 µM) and 0.5 µg/mL (≈ 2.15 µM), respectively.
In the case of `CO/N=C1/c2ccoc2C(=O)c2c(C)noc21`, the MIC80 in the series with Candida albicans [1] is > 64 µg/mL; in the series with Candida albicans [2], > 64 µg/mL; in the series on Candida tropicalis it was > 64 µg/mL; with Nakaseomyces glabratus, > 64 µg/mL; in the series on Cryptococcus neoformans [3], 2 µg/mL (≈ 8.61 µM); in the series on Cryptococcus neoformans [4] it was 1 µg/mL (≈ 4.31 µM). Further, the MIC80 is 8 µg/mL (≈ 34.5 µM) in series [5] and 4 µg/mL in the series with Candida albicans [6]. Also, the “fractional inhibitory concentration index (FICI)” value in the series on Candida albicans [7] stood at 0.094.
Regarding `Cc1noc2c1C(=O)c1sccc1/C2=N/O`, the MIC80 in the series on Candida albicans [1] is > 64 µg/mL; with Candida albicans [2] it was > 64 µg/mL; in the series on Candida tropicalis it was > 64 µg/mL; in the series with Nakaseomyces glabratus, > 64 µg/mL; in the series with Cryptococcus neoformans [3] it was 0.25 µg/mL (≈ 1.07 µM); in the series with Cryptococcus neoformans [4] it was 8 µg/mL (≈ 34.2 µM). For the same compound, the MIC80 amounted to 4 µg/mL (≈ 17.1 µM) in series [5] and 2 µg/mL with Candida albicans [6]. Moreover, the “fractional inhibitory concentration index (FICI)” value in the series on Candida albicans [7] is listed as 0.094.
